Assay results published in ChEMBL document CHEMBL1132521, “Synthesis and hypoglycemic effect of chrysin derivatives” (Bioorg Med Chem Lett, 1999).

Key:
Mus musculus [1] = assay: In vivo hypoglycemic activity after administration (43 mg/kg) in mice on day 0 was determined; type: functional
Mus musculus [2] = assay: In vivo hypoglycemic activity after administration (43 mg/kg) in mice on day 7 was determined; type: functional
[3] = Ratio of hypoglycemic activity in mice was tested on day 7.; type: functional
Mus musculus [4] = assay: In vivo hypoglycemic activity after administration (40 mg/kg) in mice on day 0 was determined; type: functional
Mus musculus [5] = assay: In vivo hypoglycemic activity after administration (40 mg/kg) in mice on day 7 was determined; type: functional
Mus musculus [6] = assay: Abnormal symptoms was determined in mouse after oral administration of 100 mg/kg; - sign indicates abnormal symptoms in treated mouse; type: functional, organism-based; design: dose 100 mg/kg
Mus musculus [7] = assay: Abnormal symptoms was determined in mouse after oral administration of 20 mg/kg; - sign indicates abnormal symptoms in treated mouse; type: functional, organism-based; design: dose 20 mg/kg
Mus musculus [8] = assay: Abnormal symptoms was determined in mouse after oral administration of 500 mg/kg; - sign indicates abnormal symptoms in treated mouse; type: functional, organism-based; design: dose 500 mg/kg
Mus musculus [9] = assay: Abnormal symptoms was determined in mouse after oral administration of 5 mg/kg; - sign indicates abnormal symptoms in treated mouse; type: functional, organism-based; design: dose 5 mg/kg
Mus musculus [10] = assay: Body weight was determined in mouse after oral administration of 500 mg/kg on day 0; type: functional
Mus musculus [11] = assay: Body weight was determined in mouse after oral administration of 500 mg/kg on day 7; type: functional
Mus musculus [12] = assay: Body weight was determined in mouse after oral administration of 5 mg/kg on day 0; type: functional
Mus musculus [13] = assay: Body weight was determined in mouse after oral administration of 5 mg/kg on day 7; type: functional
Mus musculus [14] = assay: Body weight was determined in mouse after oral administration of 100 mg/kg on day 0; type: functional
Mus musculus [15] = assay: Body weight was determined in mouse after oral administration of 100 mg/kg on day 7; type: functional
Mus musculus [16] = assay: Body weight was determined in mouse after oral administration of 20 mg/kg on day 0; type: functional
Mus musculus [17] = assay: Body weight was determined in mouse after oral administration of 20 mg/kg on day 7; type: functional
Mus musculus [18] = assay: Daily food consumption was determined in mouse after oral administration of 100 mg/kg; type: functional
Mus musculus [19] = assay: Daily food consumption was determined in mouse after oral administration of 20 mg/kg; type: functional
Mus musculus [20] = assay: Daily food consumption was determined in mouse after oral administration of 500 mg/kg; type: functional
Mus musculus [21] = assay: Daily water consumption was determined in mouse after oral administration of 100 mg/kg; type: functional
Mus musculus [22] = assay: Daily water consumption was determined in mouse after oral administration of 20 mg/kg; type: functional
Mus musculus [23] = assay: Daily water consumption was determined in mouse after oral administration of 500 mg/kg; type: functional
Mus musculus [24] = assay: Daily water consumption was determined in mouse after oral administration of 5 mg/kg; type: functional
Rattus norvegicus [25] = assay: Abnormal symptoms was determined in rat after oral administration of 500 mg/kg; - sign indicates abnormal symptoms in treated mouse; type: functional, organism-based; design: dose 500 mg/kg
Rattus norvegicus [26] = assay: Body weight was determined in rat after oral administration of 500 mg/kg on day 0; type: functional
Rattus norvegicus [27] = assay: Body weight was determined in rat after oral administration of 500 mg/kg on day 7; type: functional
Rattus norvegicus [28] = assay: Daily food consumption was determined in rat after oral administration of 500 mg/kg; type: functional
Rattus norvegicus [29] = assay: Kidney weight was determined in rat after oral administration of 500 mg/kg; type: functional
Rattus norvegicus [30] = assay: Liver weight was determined in rat after oral administration of 500 mg/kg; type: functional; design: unit not given beside the values
Rattus norvegicus [31] = assay: Lung weight was determined in rat after oral administration of 500 mg/kg; type: functional; design: unit not given beside the values
Mus musculus [32] = assay: Daily food consumption was determined in mouse after oral administration of 5 mg/kg; type: functional
Rattus norvegicus [33] = assay: Spleen weight was determined in rat after oral administration of 500 mg/kg; type: functional; design: unit not given beside the values
Rattus norvegicus [34] = assay: Daily water consumption was determined in rat after oral administration of 500 mg/kg; type: functional
Mus musculus [35] = assay: In vivo hypoglycemic activity after administration (50 mg/kg) in mice on day 0 was determined; type: functional
Mus musculus [36] = assay: In vivo hypoglycemic activity after administration (50 mg/kg) in mice on day 7 was determined; type: functional

Work on `CCCCOc1cc(OCCCC)c2c(=O)cc(-c3ccccc3)oc2c1` yielded a Blood glucose (Mus musculus [1]) of 454.4 mg/dL, a Blood glucose (Mus musculus [2]) of 405.7 mg/dL and a Ratio [3] of 89.3.
For `Cc1ccc(C(=O)Oc2cc(O)c3c(=O)cc(-c4ccccc4)oc3c2)cc1`, the Blood glucose (Mus musculus [4]) was 464.3 mg/dL, the Blood glucose (Mus musculus [5]) was 261.8 mg/dL and the Activity (Mus musculus [6]) was “abnormal symptoms in treated mouse”. For the same compound, the Activity (Mus musculus [7]) was “abnormal symptoms in treated mouse”, the Activity (Mus musculus [8]) was “abnormal symptoms in treated mouse” and the Activity (Mus musculus [9]) was “abnormal symptoms in treated mouse”. For the same compound, the Body weight (Mus musculus [10]) was 24.8, the Body weight (Mus musculus [11]) was 31.2 and the Body weight (Mus musculus [12]) was 25.1. For the same compound, the Body weight (Mus musculus [13]) was 32.2, the Body weight (Mus musculus [14]) was 25.2 and the Body weight (Mus musculus [15]) was 31.6. The Body weight (Mus musculus [16]) was 24.7, the Body weight (Mus musculus [17]) was 31.4 and the Food intake (Mus musculus [18]) was 50.78 g. For the same compound, the Food intake (Mus musculus [19]) was 50.6 g, the Food intake (Mus musculus [20]) was 49.86 g and the Water consumption (Mus musculus [21]) was 83.75 mL. The Water consumption (Mus musculus [22]) was 80.75 mL, the Water consumption (Mus musculus [23]) was 82.08 mL and the Water consumption (Mus musculus [24]) was 80.42 mL. For the same compound, the Activity (Rattus norvegicus [25]) was “abnormal symptoms in treated mouse”, the Body weight (Rattus norvegicus [26]) was 237.5 and the Body weight (Rattus norvegicus [27]) was 302.5. It also gave a Food intake (Rattus norvegicus [28]) of 112.83 g, an Organ weight (Rattus norvegicus [29]) of 0.98 and an Organ weight (Rattus norvegicus [30]) of 9.6. The Organ weight (Rattus norvegicus [31]) was 1.26, the Ratio [3] was 56.4 and the Food intake (Mus musculus [32]) was 49.35 g. For the same compound, the Organ weight (Rattus norvegicus [33]) was 0.66 and the Water consumption (Rattus norvegicus [34]) was 216.83 mL.
Compound `CCCOc1cc(O)c2c(=O)cc(-c3ccccc3)oc2c1` has a Blood glucose (Mus musculus [35]) of 400 mg/dL, a Blood glucose (Mus musculus [36]) of 237.8 mg/dL and a Ratio [3] of 59.5.
`COc1cc(O)c2c(=O)cc(-c3ccccc3)oc2c1` [TECHTOCHRYSIN] gave a Blood glucose (Mus musculus [35]) of 455 mg/dL, a Blood glucose (Mus musculus [36]) of 399.6 mg/dL and a Ratio [3] of 87.8.
Work on `CCCCCCCCCCCCOc1cc(O)c2c(=O)cc(-c3ccccc3)oc2c1` yielded a Blood glucose (Mus musculus [35]) of 465.6 mg/dL, a Blood glucose (Mus musculus [36]) of 381.3 mg/dL and a Ratio [3] of 81.9.
In the case of `O=C(Cc1ccccc1)Oc1cc(O)c2c(=O)cc(-c3ccccc3)oc2c1`, the Blood glucose (Mus musculus [35]) is reported as 496.2 mg/dL, the Blood glucose (Mus musculus [36]) is reported as 515.6 mg/dL and the Ratio [3] is reported as 103.9.
Work on `COc1ccc(/C=C/C(=O)Oc2cc(O)c3c(=O)cc(-c4ccccc4)oc3c2)cc1` yielded a Blood glucose (Mus musculus [4]) of 475.9 mg/dL, a Blood glucose (Mus musculus [5]) of 333.3 mg/dL and a Ratio [3] of 70.
In the case of `CC(=O)Oc1cc(OC(C)=O)c2c(=O)cc(-c3ccccc3)oc2c1` [CHRYSIN DIACETATE], the Blood glucose (Mus musculus [1]) is reported as 472 mg/dL, the Blood glucose (Mus musculus [2]) is reported as 341.5 mg/dL and the Ratio [3] is reported as 72.4.
